# Measured values reported in patent US10150760B2, “Compounds for use in preparing heterocyclic triazole agonists of the APJ receptor” (AMGEN INC., priority 2016, dated 2018).
# Biological target: human APJ receptor (Homo sapiens (Human), UniProt P35414)
# Test: [35S]GTPγS binding assay on membranes from CHO cells stably expressing human APJ receptor
# Format: biochemical
# Details: read-out: Activity hAPJ SPA EC50 IP
# Procedure: The human APJ receptor was cloned by polymerase chain reaction and the gene encoding the receptor was subcloned in pFLAG-CMV™-3 expression vector (Sigma, Saint Louis, Mo. USA) in-house at Amgen. A GTPγS binding assay was performed on membranes prepared from CHO cells stably expressing human APJ receptor. The optimum experimental conditions for the concentrations of GDP, MgCl2, and NaCl in the assay buffer were initially determined. The assay was performed in assay buffer [20 mM HEPES, pH 7.5, 5 mM MgCl2, and 0.1% (w/v) BSA with 200 mM NaCl, 3 μM GDP] and membranes expressing human APJ receptor/well along with WGA PS beads. The reaction was initiated by addition of 0.2 nM [^35S]GTPγS (Perkin Elmer Life and Analytical Sciences, Waltham USA) in the absence or presence of various ligands and incubated at RT for 90 min. Nonspecific binding was determined in the presence of 100 μM GTPγS and was always less than 0.2% of total binding. All the results presented are means of several independent experiments and analyzed by non-linear regression methods using commercially available program Prism (GraphPad, San Diego, Calif.) to obtain EC50 detailed in Table 38.
# Chain of human APJ receptor (P35414 whole entry): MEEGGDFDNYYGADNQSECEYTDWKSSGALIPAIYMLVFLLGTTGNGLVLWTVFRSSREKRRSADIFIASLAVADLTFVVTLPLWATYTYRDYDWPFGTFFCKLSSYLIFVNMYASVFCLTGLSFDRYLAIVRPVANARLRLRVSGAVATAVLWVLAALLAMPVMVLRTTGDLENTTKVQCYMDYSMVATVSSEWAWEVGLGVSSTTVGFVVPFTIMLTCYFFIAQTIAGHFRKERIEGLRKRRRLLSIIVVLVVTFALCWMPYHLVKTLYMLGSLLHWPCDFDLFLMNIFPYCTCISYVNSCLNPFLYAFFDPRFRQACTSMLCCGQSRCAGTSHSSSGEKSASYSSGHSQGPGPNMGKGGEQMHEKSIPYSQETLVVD
row,Molecule,EC50 [µM]
1,"(1S,2S)-N-(4-(1,3-dimethoxy-2-propanyl)-5-((2R,5R)-5-methyltetrahydro-2-furanyl)-4H-1,2,4-triazol-3-yl)-1-(5-fluoro-2-pyrimidinyl)-1-(2-propanyloxy)-2-propanesulfonamide or (1S,2S)-N-(4-(1,3-dimethoxy-2-propanyl)-5-((2S,5S)-5-methyltetrahydro-2-furanyl)-4H-1,2,4-triazol-3-yl)-1-(5-fluoro-2-pyrimidinyl)-1-(2-propanyloxy)-2-propanesulfonamide [Example 360.0]",0.31
2,"COCC1(n2c(NS(=O)(=O)[C@@H](C)[C@H](OC)c3ncc(Cl)cn3)nnc2[C@H]2CCC(C)(C)O2)CC1 (single isomer, unassigned) [Example 289.0, (1R,2S)-1-(5-chloropyrimidin-2-yl)-N-(5-((R)-5,5-dimethyltetrahydrofuran-2-yl)-4-(1-(methoxymethypcyclopropyl)-4H-1,2,4-triazol-3-yl)-1-methoxypropane-2-sulfonamide or (1R,2S)-1-(5-chloropyrimidin-2-yl)-N-(5-((S)-5,5-dimethyltetrahydrofuran-2-yl)-4-(1-(methoxymethypcyclopropyl)-4H-1,2,4-triazol-3-yl)-1-methoxypropane-2-sulfonamide]",1.1
3,"COc1cccc(OC)c1-n1c(NS(=O)(=O)CCc2ccc(Cl)cc2)nnc1[C@@H]1CCCO1 (single isomer, unassigned) [Example 144.0, (S)-2-(4-Chlorophenyl)-N-(4-(2,6-dimethoxyphenyl)-5-(tetrahydrofuran-2-yl)-4H-1,2,4-triazol-3-yl)ethanesulfonamide or (R)-2-(4-chlorophenyl)-N-(4-(2,6-dimethoxyphenyl)-5-(tetrahydrofuran-2-yl)-4H-1,2,4-triazol-3-yl)ethanesulfonamide]",0.08
4,"COCCn1c(NS(=O)(=O)[C@@H](C)[C@H](OC)c2ncc(Cl)cn2)nnc1[C@H]1CCOC1 (single isomer, unassigned) [Example 310.0, (1R,2S)-1-(5-chloropyrimidin-2-yl)-1-methoxy-N-(4-(2-methoxyethyl)-5-((R)-tetrahydrofuran-3-yl)-4H-1,2,4-triazol-3-yl)propane-2-sulfonamide or (1R,2S)-1-(5-chloropyrimidin-2-yl)-1-methoxy-N-(4-(2-methoxyethyl)-5-((S)-tetrahydrofuran-3-yl)-4H-1,2,4-triazol-3-yl)propane-2-sulfonamide]",0.54
5,"(1R,2S)-N-(5-((R)-1,4-dioxan-2-yl)-4-(1-(pyridin-3-yl)cyclopropyl)-4H-1,2,4-triazol-3-yl)-1-(5-chloropyrimidin-2-yl)-1-methoxypropane-2-sulfonamide or (1R,2S)-N-(5-((S)-1,4-dioxan-2-yl)-4-(1-(pyridin-3-yl)cyclopropyl)-4H-1,2,4-triazol-3-yl)-1-(5-chloropyrimidin-2-yl)-1-methoxypropane-2-sulfonamide [Example 296.0]",0.17
6,"COc1cccc(OC)c1-n1c(NS(=O)(=O)[C@@H](C)[C@H](OC)c2ncc(Cl)cn2)nnc1[C@H]1CCCO1 (single isomer, unassigned) [Example 52.0, (1R,2S)-1-(5-chloropyrimidin-2-yl)-N-(4-(2,6-dimethoxyphenyl)-5-((R)-tetrahydrofuran-2-yl)-4H-1,2,4-triazol-3-yl)-1-methoxypropane-2-sulfonamide or (1R,2S)-1-(5-chloropyrimidin-2-yl)-N-(4-(2,6-dimethoxyphenyl)-5-((S)-tetrahydrofuran-2-yl)-4H-1,2,4-triazol-3-yl)-1-methoxypropane-2-sulfonamide]",0.02
7,"COc1ncnc(OC)c1-n1c(NS(=O)(=O)[C@@H](C)[C@H](OC)c2ncc(C)cn2)nnc1[C@@H]1Cc2ccccc2O1 (single isomer, unassigned) [Example 232.0, (1R,2S)-N-(5-((S)-2,3-dihydrobenzofuran-2-yl)-4-(4,6-dimethoxypyrimidin-5-yl)-4H-1,2,4-triazol-3-yl)-1-methoxy-1-(5-methylpyrimidin-2-yl)propane-2-sulfonamide or (1R,2S)-N-(5-((R)-2,3-dihydrobenzofuran-2-yl)-4-(4,6-dimethoxypyrimidin-5-yl)-4H-1,2,4-triazol-3-yl)-1-methoxy-1-(5-methylpyrimidin-2-yl)propane-2-sulfonamide]",0.22
8,"COc1cccc(OC)c1-n1c(NS(=O)(=O)[C@@H](C)[C@H](OC)c2ncc(Cl)cn2)nnc1C1CCOCC1 [Example 103.0, (1R,2S)-1-(5-chloropyrimidin-2-yl)-N-(4-(2,6-dimethoxyphenyl)-5-(tetrahydro-2H-pyran-4-yl)-4H-1,2,4-triazol-3-yl)-1-methoxypropane-2-sulfonamide]",0.045
9,"(2S,3R)-N-(4-(2,6-dimethoxyphenyl)-5-((R)-1,4-dioxan-2-yl)-4H-1,2,4-triazol-3-yl)-3-(5-methoxypyrazin-2-yl)butane-2-sulfonamide or (2S,3R)-N-(4-(2,6-dimethoxyphenyl)-5-((S)-1,4-dioxan-2-yl)-4H-1,2,4-triazol-3-yl)-3-(5-methoxypyrazin-2-yl)butane-2-sulfonamide [Example 207.0]",0.0048
10,"C[C@H](c1ncc(Cl)cn1)[C@H](C)S(=O)(=O)Nc1nnc([C@@H]2COCCO2)n1C1CCOCC1 (single isomer, unassigned) [Example 245.0, (2S,3R)-3-(5-chloro-2-pyrimidinyl)-N-(5-((2R)-1,4-dioxan-2-yl)-4-(tetrahydro-2H-pyran-4-yl)-4H-1,2,4-triazol-3-yl)-2-butanesulfonamide or (2S,3R)-3-(5-chloro-2-pyrimidinyl)-N-(5-((2S)-1,4-dioxan-2-yl)-4-(tetrahydro-2H-pyran-4-yl)-4H-1,2,4-triazol-3-yl)-2-butanesulfonamide]",0.62
11,"CO[C@H](c1cnc(C)cn1)[C@H](C)S(=O)(=O)Nc1nnc([C@H]2CCOC2)n1C1(C)CC1 (single isomer, unassigned) [Example 128.0, (1R,2S)-1-methoxy-N-(4-(1-methylcyclopropyl)-5-((R)-tetrahydrofuran-3-yl)-4H-1,2,4-triazol-3-yl)-1-(5-methylpyrazin-2-yl)propane-2-sulfonamide or (1R,2S)-1-methoxy-N-(4-(1-methylcyclopropyl)-5-((S)-tetrahydrofuran-3-yl)-4H-1,2,4-triazol-3-yl)-1-(5-methylpyrazin-2-yl)propane-2-sulfonamide]",0.79
12,"COc1cccc(OC)c1-n1c(NS(=O)(=O)[C@@H](C)[C@H](C)c2ncc(C)cn2)nnc1[C@H]1CCCO1 (mixture of isomers) [Example 48.0, (2S,3R)-N-(4-(2,6-dimethoxyphenyl)-5-((R)-tetrahydrofuran-2-yl)-4H-1,2,4-triazol-3-yl)-3-(5-methylpyrimidin-2-yl)butane-2-sulfonamide and (2S,3R)-N-(4-(2,6-dimethoxyphenyl)-5-((S)-tetrahydrofuran-2-yl)-4H-1,2,4-triazol-3-yl)-3-(5-methylpyrimidin-2-yl)butane-2-sulfonamide]",0.0039
13,"(1S,2S)-N-(4-(1,3-dimethoxy-2-propanyl)-5-((2R,5R)-5-methyltetrahydro-2-furanyl)-4H-1,2,4-triazol-3-yl)-1-(5-methoxy-2-pyrimidinyl)-1-(2-propanyloxy)-2-propanesulfonamide or (1S,2S)-N-(4-(1,3-dimethoxy-2-propanyl)-5-((2S,5S)-5-methyltetrahydro-2-furanyl)-4H-1,2,4-triazol-3-yl)-1-(5-methoxy-2-pyrimidinyl)-1-(2-propanyloxy)-2-propanesulfonamide [Example 363.0]",0.028
14,"(1R,2S)-N-(4-(2,6-dimethoxyphenyl)-5-((S)-3-oxoisoindolin-1-yl)-4H-1,2,4-triazol-3-yl)-1-methoxy-1-(5-methylpyrimidin-2-yl)propane-2-sulfonamide or (1R,2S)-N-(4-(2,6-dimethoxyphenyl)-5-((R)-3-oxoisoindolin-1-yl)-4H-1,2,4-triazol-3-yl)-1-methoxy-1-(5-methylpyrimidin-2-yl)propane-2-sulfonamide [Example 236.0]",> 4.2
15,"COCC1(n2c(NS(=O)(=O)[C@@H](C)[C@H](OC)c3ncc(Cl)cn3)nnc2[C@H]2CCC(C)(C)O2)CC1 (single isomer, unassigned) [Example 290.0, (1R,2S)-1-(5-chloropyrimidin-2-yl)-N-(5-((R)-5,5-dimethyltetrahydrofuran-2-yl)-4-(1-(methoxymethypcyclopropyl)-4H-1,2,4-triazol-3-yl)-1-methoxypropane-2-sulfonamide or (1R,2S)-1-(5-chloropyrimidin-2-yl)-N-(5-((S)-5,5-dimethyltetrahydrofuran-2-yl)-4-(1-(methoxymethyl)cyclopropyl)-4H-1,2,4-triazol-3-yl)-1-methoxypropane-2-sulfonamide]",0.023
16,"COc1cccc(OC)c1-n1c(NS(=O)(=O)CCc2ncc(Cl)cn2)nnc1[C@@H]1CCOC1 [Example 386.0, 2-(5-chloro-2-pyrimidinyl)-N-(4-(2,6-dimethoxyphenyl)-5-((3S)-tetrahydro-3-furanyl)-4H-1,2,4-triazol-3-yl)ethanesulfonamide]",0.081
